System: E. coli, ATCC #51813
Test: Antibacterial efficacy test, ATP Relative Light Unit (RLU) counts
Type: cell-based
Method: The NIST nanoparticles are formed by a chemical reduction process that utilizes citrate as reducing and capping agent.
Relative Light Unit (RLU) counts were recorded at 12 hours and 24 hours post treatment. RLU measurements were carried out using a Hygiena SystemSURE Plus V.2 SN067503 RLU meter with Hygenia AquaSnap TOTAL ATP Water Test Cat #U143 Lot #153019. Culturing media was Hardy Diagnostics Buffered Peptone Water Lot #118272. Samples were prepared with the nanoparticle treatments and then diluted with the media to provide the tested concentrations. The test organism (Microbiologics, E. coli, KwikStik, ATCC #51813, Ref #0791 K, Lot #791-1-6) was incubated in fresh Buffered Peptone Water growth media for 24 hours prior to exposure to the nanoparticle treatments.

With `O=[N+]([O-])[O-].[Ag+]` [AgNO3 Silver Nitrate, silver nitrate] the “RLU Counts at 12 Hours Post Exposure” value (0.25 ppm (mg/L)) was 80 RLU, the “RLU Counts at 24 Hours Post Exposure” value (0.25 ppm (mg/L)) was 25 RLU and the “RLU Counts at 12 Hours Post Exposure” value (0.5 ppm (mg/L)) was 75 RLU. For the same compound, the “RLU Counts at 24 Hours Post Exposure” value (0.5 ppm (mg/L)) was 46 RLU, the “RLU Counts at 12 Hours Post Exposure” value (1.0 ppm (mg/L)) was 84 RLU and the “RLU Counts at 24 Hours Post Exposure” value (1.0 ppm (mg/L)) was 30 RLU.

— US12610952B2, “Antimicrobial compositions and methods” (EVOQ NANO, INC., priority 2014, dated 2026)
